In PubChem BioAssay (NCI):
Where “and” joins values, the source holds several entries; their conditions need not be identical. Identical values can stand only once.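 Tested at 5 concentrations; 48 h exposure; 96-well plates; endpoints linearly interpolated, else capped at highest concentration. At the GI50, growth is halved. At the TGI there is no net growth.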

Legend:
Assay in all cases: NCI-60 cell line screen, 48 h
SK-MEL-2 melanoma = test system: SK-MEL-2 melanoma
SF-295 CNS = test system: SF-295 CNS
786-0 renal = test system: 786-0 renal
CCRF-CEM leukemia = test system: CCRF-CEM leukemia
OVCAR-4 ovarian = test system: OVCAR-4 ovarian
A498 renal = test system: A498 renal
OVCAR-3 ovarian = test system: OVCAR-3 ovarian
SK-OV-3 ovarian = test system: SK-OV-3 ovarian
CAKI-1 renal = test system: CAKI-1 renal
MCF7 breast = test system: MCF7 breast

SMILES	TGI (SK-MEL-2 melanoma)	TGI (SF-295 CNS)	TGI (786-0 renal) [µM]	TGI (CCRF-CEM leukemia)	TGI (OVCAR-4 ovarian) [µM]	TGI (A498 renal)	TGI (OVCAR-3 ovarian)	TGI (SK-OV-3 ovarian)	TGI (CAKI-1 renal) [µM]	TGI (MCF7 breast) [µM]	GI50 (SF-295 CNS) [µM]	GI50 (OVCAR-3 ovarian) [µM]	GI50 (CAKI-1 renal)	GI50 (SK-MEL-2 melanoma) [µM]	GI50 (CCRF-CEM leukemia) [µM]	GI50 (OVCAR-4 ovarian) [µM]	GI50 (A498 renal) [µM]	GI50 (SK-OV-3 ovarian) [µM]	GI50 (MCF7 breast) [µM]
CC(C)(C)OC(=O)NCC(c1c[nH]c2ccccc12)c1c[nH]c2ccccc12	32.9 µM	32.8 µM	32	44.7 µM	26.5	> 100 µM	30.6 µM	33.5 µM	29.1	> 100	–	–	–	–	–	–	–	–	–
C/C(CC(O)(C(F)(F)F)C(F)(F)F)=N\O	> 10 µM	> 10 µM	> 10	> 10 µM	> 10	> 10 µM	> 10 µM	> 10 µM	> 10	> 10	–	–	–	–	–	–	–	–	–
COc1ccc(C2C3=C(COC3=O)Oc3cc4c(cc32)OCO4)cc1OC (stereo not drawn)	> 100 µM	24 µM	> 100	> 32.4 µM	> 100	8.18 µM	6.05 µM	18.1 µM	> 100	> 100	–	–	–	–	–	–	–	–	–
CC1(C)Cc2ccccc2C(C)(Cl)C(=O)N1 (stereo not drawn)	–	> 10 µM	> 10	> 10 µM	> 10	> 10 µM	> 10 µM	–	> 10	> 10	–	–	–	–	–	–	–	–	–
C/C(=N\Nc1nc2cc(F)ccc2s1)c1ccccn1	7.33 µM	4.67 µM	> 39	> 100 µM	3.32	> 100 µM	5.45 µM	5.37 µM	5.67	> 100	–	–	–	–	–	–	–	–	–
Cc1cc(NS(=O)(=O)c2ccc(Nc3c4ccccc4nc4c(C(=O)NC(CO)(CO)CO)cccc34)cc2)no1	48.5 µM	> 100 µM	> 100	66.3 µM	> 100	> 100 µM	> 100 µM	> 100 µM	> 100	> 100	–	–	–	–	–	–	–	–	–
CSCSCC(CO)NC(=O)/C=C\c1c(C)[nH]c(=O)[nH]c1=O (stereo not drawn)	136 µM	209 µM	–	37.4 µM	13.4	229 µM	14 µM	74 µM	33.3	29.2	62.1	1.41	2.04 µM	–	–	–	–	–	–
CC(C)(C)c1cc(C(C)(C)C)c(SC2OC(CO)C(O)C(O)C2O)c(O)c1O (stereo not drawn)	25 µM	28.3 µM	30.4	> 34.7 µM	> 61.9	34.8 µM	28.4 µM	32.9 µM	> 84.9	> 34.2	–	–	–	–	–	–	–	–	–
CN1CCC(O)(OC(=O)C(c2ccccc2)C2(O)CCCC2)CC1 (stereo not drawn)	> 100 µM	> 100 µM	> 100	> 100 µM	> 100	> 100 µM	> 100 µM	> 100 µM	> 100	> 100	–	–	–	–	–	–	–	–	–
COc1ccc(-c2csc3c2[N+]2(C)C=CC=C2C3N2CCCC2)cc1 (stereo not drawn)	31.1 µM	54 µM	> 100	> 100 µM	> 100	> 100 µM	52.6 µM	> 100 µM	> 100	> 100	–	–	–	–	–	–	–	–	–
CC12CC(c3ccccc3O1)C(C(=O)Nc1nccs1)C(=O)N2 (stereo not drawn)	> 100 µM	> 100 µM	> 100	> 100 µM	> 100	> 100 µM	> 100 µM	> 100 µM	> 100	> 100	–	–	–	–	–	–	–	–	–
C[C@H](CCc1nc(C#N)c(N)o1)[C@H]1CC[C@H]2[C@@H]3CCC4C[C@@H](O)CC[C@]4(C)[C@H]3C[C@@H](O)[C@]12C (stereo partly drawn)	32.2 µM	30.5 µM	24	0.445 µM	4.92	36.6 µM	27.3 µM	28.5 µM	28.4	35.7	–	–	–	–	–	–	–	–	–
Oc1ccc(Nc2nc(Cl)c3[nH]cnc3n2)cc1	87.3 µM	> 100 µM	> 100	> 100 µM	> 100	> 100 µM	> 100 µM	> 100 µM	> 100	> 100	–	–	–	–	–	–	–	–	–
O=C1OC2(CCCCC2)C(Oc2ccc(Cl)cc2)=C1F	61.8 µM	> 100 µM	> 100	86.1 µM	–	> 100 µM	> 100 µM	> 100 µM	> 100	> 100	–	–	–	–	–	–	–	–	–
Clc1cc(Cl)nc(Nc2ccc3c(c2)CCC3)n1	> 100 µM	> 100 µM	> 100	72.8 µM	> 100	> 100 µM	> 100 µM	> 100 µM	75.7	70.8	–	–	–	–	–	–	–	–	–
CSCCC(NC(=O)C(Cc1c[nH]c2ccccc12)NC(=O)CCNC(=O)OC(C)(C)C)C(=O)NC(CC(=O)O)C(=O)NC(Cc1ccccc1)C(N)=O (stereo not drawn)	> 50 µM	> 50 µM	> 50	> 50 µM	–	> 50 µM	> 50 µM	> 50 µM	> 50	> 50	–	–	–	–	–	–	–	–	–

SMILES	TGI (SK-MEL-2 melanoma)	TGI (SF-295 CNS)	TGI (786-0 renal) [µM]	TGI (CCRF-CEM leukemia)	TGI (OVCAR-4 ovarian) [µM]	TGI (A498 renal)	TGI (OVCAR-3 ovarian)	TGI (SK-OV-3 ovarian)	TGI (CAKI-1 renal) [µM]	TGI (MCF7 breast) [µM]	GI50 (SF-295 CNS) [µM]	GI50 (OVCAR-3 ovarian) [µM]	GI50 (CAKI-1 renal)	GI50 (SK-MEL-2 melanoma) [µM]	GI50 (CCRF-CEM leukemia) [µM]	GI50 (OVCAR-4 ovarian) [µM]	GI50 (A498 renal) [µM]	GI50 (SK-OV-3 ovarian) [µM]	GI50 (MCF7 breast) [µM]
Cc1ccc(N2Cc3c(ccc4ccccc34)OP2(=S)N2CCCC2)cc1 (stereo not drawn)	> 100 µM	> 100 µM	–	> 100 µM	> 100	> 100 µM	> 55.7 µM	> 100 µM	> 100	> 100	–	–	–	–	–	–	–	–	–
O=C(O)c1c(CC(Cc2ccccc2)C(=O)O)ccc2c1CCC2 (stereo not drawn)	> 100 µM	> 100 µM	> 100	> 100 µM	> 100	> 100 µM	> 100 µM	> 100 µM	> 100	> 100	–	–	–	–	–	–	–	–	–
CC1=NN(c2ccccc2)C(=O)/C1=C\c1c(C)[nH]n(-c2ccccc2)c1=O	> 100 µM	> 100 µM	> 100	> 100 µM	> 100	> 100 µM	> 100 µM	> 100 µM	> 100	> 100	–	–	–	–	–	–	–	–	–
CCOC(=O)c1c(SC(=O)c2ccc(Cl)cc2)n(-c2ccccc2)c(=S)n(-c2ccccc2)c1=O	–	> 100 µM	> 100	> 100 µM	> 100	> 100 µM	> 100 µM	> 100 µM	> 100	> 100	–	–	–	–	–	–	–	–	–
CCC1OC2(C)CC(C#N)(C#N)C1(C#N)C(=N)O2 (stereo not drawn)	> 100 µM	> 100 µM	> 100	> 100 µM	–	> 100 µM	> 100 µM	> 100 µM	> 100	> 100	–	–	–	–	–	–	–	–	–
COC(=O)[C@@H]1C=CCN1S(=O)(=O)c1ccc(C)cc1	> 100 µM	> 100 µM	> 100	72.1 µM	> 100	> 100 µM	> 100 µM	> 100 µM	57.8	> 100	–	–	–	–	–	–	–	–	–
Cc1c2oc(=O)c(C#N)cc2c2ccccn12	> 100 µM	40.7 µM	> 100	> 100 µM	> 100	> 100 µM	69.5 µM	> 100 µM	> 100	> 100	–	–	–	–	–	–	–	–	–
CNCC(SC)c1ccc(O)c(O)c1 (stereo not drawn)	> 100 µM	> 100 µM	39.1	7.33 µM	32.5	> 100 µM	40.9 µM	> 100 µM	38	87.4	–	–	–	–	–	–	–	–	–
C#CCn1c(I)cc2c(c1=O)COC(=O)[C@]2(O)CC	> 100 µM	> 100 µM	> 100	> 100 µM	> 100	> 100 µM	> 100 µM	> 100 µM	> 100	> 100	–	–	–	–	–	–	–	–	–
CC(C)=CC(=O)OC1C2C(C)=CC(=O)C(O)C2(C)C2C3(O)OCC24C(CC(=O)OC14)C(C)C3O (stereo not drawn)	0.0723 µM and 0.0279 µM and 0.0695 µM	0.154 µM and 0.0672 µM and 0.0966 µM	0.0834	0.109 µM and 0.177 µM and 0.253 µM	–	0.288 µM and 0.511 µM	0.0226 µM and 0.0354 µM	0.709 µM and 3.74 µM	–	0.00664	0.0126	–	0.245 µM and 1.13 µM and 0.293 µM	0.025	0.02	0.02	0.142	0.549	0.00159
COC1(C)CCC(OS(C)(=O)=O)CO1 (stereo not drawn)	> 100 µM	> 100 µM	> 100	> 100 µM	> 100	> 100 µM	> 100 µM	> 100 µM	> 100	> 100	–	–	–	–	–	–	–	–	–
NCCCNCCSP(=O)(O)O	> 700 µM	> 750 µM	–	> 750 µM	> 750	> 75 µM	> 750 µM	> 750 µM	> 750	> 750	–	–	–	–	–	–	–	–	–
COC1OC(C)/C(=N/O)C2OC(C)(C)OC12 (stereo not drawn)	–	> 100 µM	> 100	> 100 µM	> 100	> 100 µM	> 100 µM	> 100 µM	> 100	> 100	–	–	–	–	–	–	–	–	–
C=CC(C)(C)/C(=C\CO[Si](C(C)C)(C(C)C)C(C)C)C(=O)N(C)c1ccccc1I	–	28.8 µM	27.6	22.6 µM	68.1	46 µM	26.2 µM	33.1 µM	44	26.1	–	–	–	–	–	–	–	–	–
O=C(NCc1cn(Cc2cccc(Oc3ccccc3)c2)nn1)c1cccnc1NCc1ccc(Cl)cc1	> 100 µM	–	–	> 100 µM	> 100	7.95 µM	9.55 µM	69.2 µM	> 100	> 100	–	3.48	4.36 µM	4.44	3.05	3.37	2.12	3.32	2.99
Nc1ccnc2c1ncn2[C@H]1C[C@H](O)[C@@H](CO)O1	> 100 µM	> 100 µM	> 100	> 100 µM	> 100	> 100 µM	> 100 µM	–	> 100	> 100	–	–	–	–	–	–	–	–	–
